Laboratory results reported in US7691858B2, “Kinase inhibitors and methods of use thereof” (TargeGen, Inc., priority 2006, dated 2010).
pIC50: −log10 of the molar value.

Experiments:
four isoforms of PI3K = assay: PI3K isoform profiles; assay type: biochemical
Protocol: Identification of PI3K isoform-selective inhibitors.
Kinase assays: For PI3K assays, 40 μL reaction buffer (20 mM Tris, 4 mM MgCl2, 10 mM NaCl, pH 7.4) containing 50 μM D-myo-phosphatidylinositol 4,5-bisphosphate substrate (Echelon Biosciences, Salt Lake City, Utah) and the desired PI3K isoform (Upstate USA, Charlottesville, Va.) were aliquoted to 96 well plates; kinase concentrations were 250-500 ng/well, such that linear kinetics were achieved over 90 min. The compound to be tested was then added as 2.5 μL of a DMSO stock to final concentration range of 100 μM. to 1 nM. Reactions were initiated by addition of 10 μL of ATP to a final concentration of 3 μM, and after 90 min 50 μL of Kinase-Glo reagent (Promega, Madison, Wis.) added to quantify residual ATP levels; luminosity was measured using an Ultra 384 instrument (Tecan, Durham, N.C.). Control reactions omitting either test compound or substrate were also performed. IC50 values were derived from experimental data by non-linear curve fitting (Prism Version 4; GraphPad Software, San Diego, Calif.).

PI3Kγ (p120γ) = biological target: T1, PI3Kγ (p120γ) (Homo sapiens, UniProt P48736); assay: PI3K luminescence kinase assay (Kinase-Glo), IC50; assay type: biochemical; settings: Table 1, mean of triplicate values
T1 construct: purchased Upstate Cell Signaling Solutions / Upstate USA
T1 sequence (P48736 whole entry): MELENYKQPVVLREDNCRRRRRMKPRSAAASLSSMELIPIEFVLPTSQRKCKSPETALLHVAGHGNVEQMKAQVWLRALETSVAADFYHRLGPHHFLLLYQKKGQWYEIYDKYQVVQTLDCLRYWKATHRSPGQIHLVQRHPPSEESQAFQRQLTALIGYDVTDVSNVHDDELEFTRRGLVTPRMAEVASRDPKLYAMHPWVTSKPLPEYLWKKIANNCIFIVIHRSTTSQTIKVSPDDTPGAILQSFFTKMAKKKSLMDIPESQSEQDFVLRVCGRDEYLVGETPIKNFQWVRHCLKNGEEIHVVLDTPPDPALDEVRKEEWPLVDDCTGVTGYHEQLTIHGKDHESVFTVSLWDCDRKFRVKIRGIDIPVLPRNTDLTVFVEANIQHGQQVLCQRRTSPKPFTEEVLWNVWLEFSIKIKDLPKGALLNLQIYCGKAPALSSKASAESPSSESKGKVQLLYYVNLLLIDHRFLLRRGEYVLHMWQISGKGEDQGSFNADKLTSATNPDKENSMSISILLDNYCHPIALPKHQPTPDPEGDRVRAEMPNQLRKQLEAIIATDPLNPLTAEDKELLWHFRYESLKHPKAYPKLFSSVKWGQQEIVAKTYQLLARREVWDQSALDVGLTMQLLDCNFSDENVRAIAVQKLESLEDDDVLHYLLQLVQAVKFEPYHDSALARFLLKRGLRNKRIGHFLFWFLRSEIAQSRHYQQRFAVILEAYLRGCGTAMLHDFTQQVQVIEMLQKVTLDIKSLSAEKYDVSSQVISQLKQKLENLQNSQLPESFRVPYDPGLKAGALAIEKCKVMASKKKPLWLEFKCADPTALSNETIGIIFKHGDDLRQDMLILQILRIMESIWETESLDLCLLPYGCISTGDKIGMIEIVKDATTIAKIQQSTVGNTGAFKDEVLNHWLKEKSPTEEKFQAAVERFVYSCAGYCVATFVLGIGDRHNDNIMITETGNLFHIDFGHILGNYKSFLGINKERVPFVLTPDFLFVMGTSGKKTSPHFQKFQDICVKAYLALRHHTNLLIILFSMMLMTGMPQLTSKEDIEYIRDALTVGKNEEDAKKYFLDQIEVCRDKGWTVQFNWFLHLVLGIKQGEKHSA
Protocol: The IC50 value for compounds were determined using a luminescence-based kinase assay with recombinant phosphatidylinositol 3-kinase-p120γ (PI3K) obtained from Upstate Cell Signaling Solutions. […] The reaction was initiated by the addition of 10 μL of ATP to a final assay concentration of 3 μM. After the reaction was to proceed for 90 min, 50 μL of Kinase-Glo reagent (Promega) was added to terminate the reaction. This solution was then allowed to proceed for an additional 10 min to maximize the luminescence reaction. […] Two control reactions were also ran: one containing no compound and the second containing neither compound nor the phosphatidylinositol 4,5-bisphosphate substrate. Data from four wells were then averaged and used to determine IC50 values for the test compounds. IC50 values were derived from experimental data using the non-linear curve fitting capabilities of Prism (Version 4; GraphPad Software).

Nc1nc(N)c2nc(-c3cccc4[nH]ccc34)cnc2n1 [Compound III, 6-(1H-Indol-4-yl)pteridine-2,4-diamine]
PI3K isoform selectivity (four isoforms of PI3K): less selective | pIC50 (PI3Kγ (p120γ)): 7.07
